Columns and labels:
STAT6 = target: T1, STAT6 (Homo sapiens, UniProt P42226); assay: Stat6 Degrader Assay (HiBiT based, HeLa LgBiT clone 4.14); format: cell-based; settings: HeLa LgBiT clone 4.14 HiBiT-STAT6, 4-24 h incubation; values given for compounds with >80% Emax; geometric mean; read-out: STAT6 degradation DC50
T1 construct: These cells express endogenous STAT6; host or cells: HeLa LgBiT clone 4.14
T1 sequence (P42226 1-847): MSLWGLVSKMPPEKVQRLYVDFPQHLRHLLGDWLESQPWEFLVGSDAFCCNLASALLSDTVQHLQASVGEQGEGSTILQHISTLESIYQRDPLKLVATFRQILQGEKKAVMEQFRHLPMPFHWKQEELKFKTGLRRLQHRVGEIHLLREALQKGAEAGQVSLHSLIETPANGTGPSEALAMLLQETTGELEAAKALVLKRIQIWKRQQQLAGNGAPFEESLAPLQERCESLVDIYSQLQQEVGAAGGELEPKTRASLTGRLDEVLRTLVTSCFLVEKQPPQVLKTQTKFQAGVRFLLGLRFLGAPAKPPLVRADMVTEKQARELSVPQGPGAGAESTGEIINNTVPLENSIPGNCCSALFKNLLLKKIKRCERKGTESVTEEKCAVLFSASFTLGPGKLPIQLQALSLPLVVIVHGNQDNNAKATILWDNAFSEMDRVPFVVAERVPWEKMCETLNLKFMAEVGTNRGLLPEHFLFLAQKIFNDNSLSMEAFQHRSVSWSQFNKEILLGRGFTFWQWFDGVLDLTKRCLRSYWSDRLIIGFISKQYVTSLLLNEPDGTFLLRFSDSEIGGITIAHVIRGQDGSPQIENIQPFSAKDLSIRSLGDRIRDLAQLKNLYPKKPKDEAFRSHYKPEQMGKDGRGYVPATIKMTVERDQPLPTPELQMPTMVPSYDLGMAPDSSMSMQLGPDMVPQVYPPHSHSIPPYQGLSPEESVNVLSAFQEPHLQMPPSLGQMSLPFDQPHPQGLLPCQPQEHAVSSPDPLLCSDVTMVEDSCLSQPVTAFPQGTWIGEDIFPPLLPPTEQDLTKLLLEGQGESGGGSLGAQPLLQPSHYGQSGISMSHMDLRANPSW
Method in brief: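 Luminescence from HiBiT-STAT6 complementing stably expressed LgBiT in HeLa clone 4.14 reports remaining STAT6 protein. Cells (5000/well) exposed to compound for 4-24 h at 37° C; read 0.5 h after Nano-Glo addition. 100% degradation window set with 50 μM terfenadine; percent degradation plotted against concentration.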

[1] = tested on: Eotaxin-3 release in human whole blood stimulated with IL-4; assay: Human Whole Blood Eotaxin-3 Assay (IL-4 stimulated eotaxin-3 release); format: cell-based; settings: IL-4 stimulation, 48 h, values given for compounds with >80% Emax, geometric mean
Method in brief: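 Eotaxin-3 (CCL26) release measured by MSD kit in plasma supernatant after 48 h IL-4 stimulation ([…]) of human whole blood. Compounds added in triplicate 4-fold dilutions 2 h before stimulation; 0.5% DMSO final, 37° C, 5% CO2.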

Structure (SMILES)	DC50 (STAT6)	EC50 [1]
C[C@H]1CN(Cc2ccc3c(c2)n(C2CC2)c(=O)n3[C@H]2CCC(=O)NC2=O)CCN1CC1CCN(C(=O)c2cc(F)c(C3CCN(Cc4cc5c(-n6ccc7c(c6=O)CCN7)ccnc5n4C)CC3)c(F)c2)CC1 (single isomer, unassigned) [Example 3u107]	2.5 nM	2.8 nM
CNc1cc(=O)n(-c2ccnc3c2cc([C@H](C)N2CC=C(c4c(C)cc(C(=O)N(C)c5ccc(C6CCN(Cc7ccc8c(c7)C(C)(C)C(=O)N8[C@@H]7CCC(=O)NC7=O)CC6)cc5)cc4F)CC2)n3C)cc1F (single isomer, unassigned) [Example 3u235]	0.1 nM	1.4 nM
CNc1cc(=O)n(-c2ccnc3c2cc([C@H](C)N2CC=C(c4c(C)cc(C(=O)N5CCC(CN6CCN(c7ccc8c(c7)n(C)c(=O)n8[C@H]7CCC(=O)NC7=O)CC6)CC5)cc4F)CC2)n3C)cc1F (single isomer, unassigned) [Example 3u296]	2.7 nM	5.8 nM
CNc1ccn(-c2ccnc3c2cc([C@H](C)N2CC=C(c4c(C)cc(C(=O)N5CCC(CN6CCN(c7ccc8c(c7)n(C7CC7)c(=O)n8[C@H]7CCC(=O)NC7=O)CC6)CC5)cc4F)CC2)n3C)c(=O)c1 (single isomer, unassigned) [Example 3u279]	1.4 nM	1.7 nM
CNc1ccn(-c2ccnc3c2cc([C@H](C)N2CCC(c4ccc(C(=O)N5CCC(CN6CCN(Cc7ccc8c(c7)C7(CC7)C(=O)N8[C@H]7CCC(=O)NC7=O)C[C@@H]6C)CC5)cc4)CC2)n3C)c(=O)c1 (single isomer, unassigned) [Example 3u6]	0.7 nM	19.3 nM
CNc1ccn(-c2ccnc3c2cc(CN2CC=C(c4c(C)cc(C(=O)N(C)c5ccc(C6CCN(Cc7ccc8c(c7)n(C)c(=O)n8C7CCC(=O)NC7=O)CC6)cc5)cc4F)CC2)n3C)c(=O)c1 (centres unmarked) [Example 3u247, N-(4-(1-((1-(2,6-dioxopiperidin-3-yl)-3-methyl-2-oxo-2,3-dihydro-1H-benzo[d]-imidazol-5-yl)methyl)piperidin-4-yl)phenyl)-3-fluoro-N,5-dimethyl-4-(1-((1-methyl-4-(4-(methyl-amino)-2-oxopyridin-1 (2H)-yl)-1H-pyrrolo[2,3-b]pyridin-2-yl)methyl)-1,2,3,6-tetrahydropyridin-4-yl)benzamide]	0.04 nM	0.3 nM
Cc1cc(C(=O)N2CCC(CN3CCN(Cc4cc5c(cc4F)n([C@H]4CCC(=O)NC4=O)c(=O)n5C)CC3)CC2)cc(F)c1C1=CCN([C@@H](C)c2cc3c(-n4ccc5c(c4=O)CCN5)ccnc3n2C)CC1 (single isomer, unassigned) [Example 3u75]	0.6 nM	1 nM
CNc1ccn(-c2ccnc3c2cc([C@H](C)N2CC=C(c4c(C)cc(C(=O)N5CCC(CN6CCN(Cc7ccc8c(c7)C(C)(C)C(=O)N8C7CCC(=O)NC7=O)C[C@@H]6C)CC5)cc4F)CC2)n3C)c(=O)c1 (stereo partly drawn) [Example 3u175, 3-(5-(((S)-4-((1-(3-fluoro-5-methyl-4-(1-((S)-1-(1-methyl-4-(4-(methylamino)-2-oxopyridin-1 (2H)-yl)-1H-pyrrolo[2,3-b]pyridin-2-yl)ethyl)-1,2,3,6-tetrahydropyridin-4-yl)benzoyl)-piperidin-4-yl)methyl)-3-methylpiperazin-1-yl)methyl)-3,3-dimethyl-2-oxoindolin-1-yl)piperidine-2,6-dione]	1.3 nM	3.8 nM
Cc1cc(C(=O)N2CCC(CN3CCN(Cc4ccc5c(c4)n(C)c(=O)n5C4CCC(=O)NC4=O)C[C@@H]3C)CC2)cc(F)c1C1CCN(Cc2cc3c(-n4ccc5c(c4=O)CCN5)ccnc3n2C)CC1 (stereo partly drawn) [Example 3u39, 3-(5-(((S)-4-((1-(3-fluoro-5-methyl-4-(1-((1-methyl-4-(4-oxo-1,2,3,4-tetrahydro-5H-pyrrolo[3,2-c]pyridin-5-yl)-1H-pyrrolo[2,3-b]pyridin-2-yl)methyl)piperidin-4-yl)benzoyl)piperidin-4-yl)methyl)-3-methylpiperazin-1-yl)methyl)-3-methyl-2-oxo-2,3-dihydro-1H-benzo[d]imidazol-1-yl)piperidine-2,6-dione]	4.3 nM	2.3 nM
CNc1cc(=O)n(-c2ccnc3c2cc([C@H](C)N2CCC(c4ccc(C(=O)N5CCC(CN6CCN(Cc7ccc8c(c7)C7(CC7)C(=O)N8C7CCC(=O)NC7=O)C[C@@H]6C)CC5)cc4)CC2)n3C)cc1F (stereo partly drawn) [Example 3u36, 3-(5′-(((S)-4-((1-(4-(1-((S)-1-(4-(5-fluoro-4-(methylamino)-2-oxopyridin-1 (2H)-yl)-1-methyl-1H-pyrrolo[2,3-b]pyridin-2-yl)ethyl)piperidin-4-yl)benzoyl)piperidin-4-yl)methyl)-3-methylpiperazin-1-yl)methyl)-2′-oxospiro[cyclopropane-1,3′-indolin]-1′-yl)piperidine-2,6-dione]	1.4 nM	3.3 nM
CNc1cc(=O)n(-c2ccnc3c2cc([C@H](C)N2CC=C(c4c(F)cc(C(=O)N5CCC(CN6CCN(c7ccc8c(c7)C7(CC7)C(=O)N8C7CCC(=O)NC7=O)CC6)CC5)cc4F)CC2)n3C)cc1F (stereo partly drawn) [Example 3u300, 3-(5′-(4-((1-(3,5-difluoro-4-(1-((S)-1-(4-(5-fluoro-4-(methylamino)-2-oxopyridin-1 (2H)-yl)-1-methyl-1H-pyrrolo[2,3-b]pyridin-2-yl)ethyl)-1,2,3,6-tetrahydropyridin-4-yl)benzoyl)-piperidin-4-yl)methyl)piperazin-1-yl)-2′-oxospiro[cyclopropane-1,3′-indolin]-1′-yl)piperidine-2,6-dione]	13 nM	24.1 nM
CNc1ccn(-c2ccnc3c2cc([C@H](C)N2CCC(c4c(F)cc(C(=O)N5CCC(CN6CCN(Cc7ccc8c(c7)C(C)(C)C(=O)N8C7CCC(=O)NC7=O)C[C@@H]6C)CC5)cc4F)CC2)n3C)c(=O)c1 (stereo partly drawn) [Example 3u80, 3-(5-(((S)-4-((1-(3,5-difluoro-4-(1-((S)-1-(1-methyl-4-(4-(methylamino)-2-oxopyridin-1 (2H)-yl)-1H-pyrrolo[2,3-b]pyridin-2-yl)ethyl)piperidin-4-yl)benzoyl)piperidin-4-yl)methyl)-3-methyl-piperazin-1-yl)methyl)-3,3-dimethyl-2-oxoindolin-1-yl)piperidine-2,6-dione]	0.8 nM	5 nM
CNc1ccn(-c2ccnc3c2cc(CN2CCC(c4c(F)cc(C(=O)N5CCC(CN6CCN(Cc7ccc8c(c7)n(C7CC7)c(=O)n8[C@H]7CCC(=O)NC7=O)C[C@@H]6C)CC5)cc4F)CC2)n3C)c(=O)c1 (single isomer, unassigned) [Example 3u217]	1.8 nM	0.6 nM
CNc1cc(=O)n(-c2ccnc3c2cc(CN2CCC(c4c(F)cc(C(=O)N5CCC(CN6CCN(Cc7ccc8c(c7)n(C)c(=O)n8C7CCC(=O)NC7=O)C[C@@H]6C)CC5)cc4F)CC2)n3C)cc1F (stereo partly drawn) [Example 3u60, 3-(5-(((S)-4-((1-(3,5-difluoro-4-(1-((4-(5-fluoro-4-(methylamino)-2-oxopyridin-1 (2H)-yl)-1-methyl-1H-pyrrolo[2,3-b]pyridin-2-yl)methyl)piperidin-4-yl)benzoyl)piperidin-4-yl)methyl)-3-methylpiperazin-1-yl)methyl)-3-methyl-2-oxo-2,3-dihydro-1H-benzo[d]imidazol-1-yl)piperidine-2,6-dione]	0.7 nM	1.6 nM
CNc1cc(=O)n(-c2ccnc3c2cc(CN2CCC(c4c(F)cc(C(=O)N5CCC(CN6CCN(Cc7ccc8c(c7)n(C)c(=O)n8C7CCC(=O)NC7=O)CC6)CC5)cc4F)CC2)n3C)cc1F (centres unmarked) [Example 3u26, 3-(5-((4-((1-(3,5-difluoro-4-(1-((4-(5-fluoro-4-(methylamino)-2-oxopyridin-1 (2H)-yl)-1-methyl-1H-pyrrolo[2,3-b]pyridin-2-yl)methyl)piperidin-4-yl)benzoyl)piperidin-4-yl)methyl)piperazin-1-yl)methyl)-3-methyl-2-oxo-2,3-dihydro-1H-benzo[d]imidazol-1-yl)piperidine-2,6-dione]	2.9 nM	3.4 nM
CNc1ccn(-c2ccnc3c2cc([C@H](C)N2CC=C(c4c(C)cc(C(=O)N5CCC(CN6CCN(c7ccc8c(c7)n(C)c(=O)n8[C@@H]7CCC(=O)NC7=O)CC6)CC5)cc4F)CC2)n3C)c(=O)c1 (single isomer, unassigned) [Example 3u294]	0.8 nM	0.3 nM

— US20250320206A1, “STAT6 DEGRADERS” (Gilead Sciences, Inc., priority 2024, published 2025)
